The NIST ThermoML archive (doi:10.1021/je700621d)

Tests used:
[1] = for mass density: Liquid, Vibrating tube method; for surface tension liquid-gas: Pendant drop shape
[2] = xn = mol fraction of the nth substance listed; conditions: 298 K; for surface tension liquid-gas: Pendant drop shape; for mass density: 101 kPa, Liquid, Vibrating tube method

CCCCCCCC[N+](C)(CCCCCCCC)CCCCCCCC.O=S(=O)([N-]S(=O)(=O)C(F)(F)F)C(F)(F)F
[1], 101.33 kPa
Conditions	mass density [kg/m3]
278.15 K	1119.8
288.15 K	1112.2
298.15 K	1104.6
308.15 K	1097.2
318.15 K	1089.6
328.15 K	1082.1

[1]
Conditions	surface tension liquid-gas [mN/m]
278.75 K	29.65
288.15 K	28.92
298.15 K	27.93
308.15 K	27.02
318.15 K	26.56
328.15 K	26.03

CCCC[n+]1ccn(C)c1.O=S(=O)([N-]S(=O)(=O)C(F)(F)F)C(F)(F)F
[1], 101.33 kPa
Conditions	mass density [kg/m3]
278.15 K	1456.1
288.15 K	1446.2
298 K	1436.4
298.15 K	1436.6
308.15 K	1427
318.15 K	1417.4
328.15 K	1407.9

[1]
Conditions	surface tension liquid-gas [mN/m]
278.75 K	33.8
288.15 K	33.37
298 K	32.8
298.15 K	32.8
308.15 K	32.32
318.15 K	31.89
328.15 K	31.28

CCn1cc[n+](C)c1.O=S(=O)([N-]S(=O)(=O)C(F)(F)F)C(F)(F)F
[1], 101.33 kPa
Conditions	mass density [kg/m3]
278.15 K	1539.1
288.15 K	1528.9
298.15 K	1518.7
308.15 K	1508.7
318.15 K	1498.6
328.15 K	1488.7

[1]
Conditions	surface tension liquid-gas [mN/m]
278.75 K	37.31
288.15 K	36.58
298.15 K	35.71
308.15 K	35.17
318.15 K	34.68
328.15 K	34.25

CCCC[n+]1ccn(C)c1.O=S(=O)([N-]S(=O)(=O)C(F)(F)F)C(F)(F)F + CCCCO
[2]
Conditions	mass density [kg/m3]	surface tension liquid-gas [mN/m]
x1 = 0.0941	962.2	23.98
x1 = 0.2025	1087.1	23.88
x1 = 0.2045	1089	23.8
x1 = 0.306	1172.6	24.16
x1 = 0.3064	1172.5	24.25
x1 = 0.3964	1230.5	25.17
x1 = 0.5002	1283.6	26.79
x1 = 0.5977	1323.5	28.32
x1 = 0.6848	1354.8	29.56
x1 = 0.8016	1388.6	30.96
x1 = 0.8986	1413.4	31.94
x1 = 1	1436.4	32.8

CCCC[n+]1ccn(C)c1.O=S(=O)([N-]S(=O)(=O)C(F)(F)F)C(F)(F)F + CCCO
[2]
Conditions	mass density [kg/m3]	surface tension liquid-gas [mN/m]
x1 = 0.035	878.2	23.6
x1 = 0.131	1036.2	24.16
x1 = 0.202	1116.5	24.73
x1 = 0.296	1194.1	25.77
x1 = 0.373	1243.5	26.47
x1 = 0.517	1311.8	28.6
x1 = 0.664	1361.9	29.89
x1 = 0.685	1368	30.54
x1 = 0.884	1422	32.49
x1 = 1	1436.4	32.8

CCCCCCCCOS(=O)(=O)[O-].CCCCn1cc[n+](C)c1 [1-butyl-3-methylimidazolium octyl sulfate]
[1], 101.33 kPa
Conditions	mass density [kg/m3]
278.15 K	1077.3
288.15 K	1070.4
298.15 K	1063.8
308.15 K	1057.1
318.15 K	1050.8
328.15 K	1044.3

[1]
Conditions	surface tension liquid-gas [mN/m]
278.75 K	28.08
288.15 K	27.29
298.15 K	26.71
308.15 K	26.27
318.15 K	25.72
328.15 K	24.99

CCOS(=O)(=O)[O-].CCn1cc[n+](C)c1 [1-ethyl-3-methylimidazolium ethyl sulfate]
[1], 101.33 kPa
Conditions	mass density [kg/m3]
278.15 K	1255.1
288.15 K	1248.1
298.15 K	1241.1
308.15 K	1234.2
318.15 K	1227.3
328.15 K	1220.6

[1]
Conditions	surface tension liquid-gas [mN/m]
278.75 K	46.7
288.15 K	46.04
298.15 K	45.43
308.15 K	44.72
318.15 K	43.74
328.15 K	43.37

CCCCO [butan-1-ol]
Conditions	surface tension liquid-gas [mN/m]
[1], 298 K	23.96

Conditions	mass density [kg/m3]
[1], 298 K, 101.3 kPa	805.3

CCCCO [butan-1-ol] + CCCC[n+]1ccn(C)c1.O=S(=O)([N-]S(=O)(=O)C(F)(F)F)C(F)(F)F
[2], x2 = 0
Conditions	mass density [kg/m3]	surface tension liquid-gas [mN/m]
–	805.3	23.96

CCCC[N+](C)(C)C.O=S(=O)([N-]S(=O)(=O)C(F)(F)F)C(F)(F)F [butyltrimethylammonium bis(trifluoromethylsulfonyl)imide]
[1], 101.33 kPa
Conditions	mass density [kg/m3]
278.15 K	1412.3
288.15 K	1403
298.15 K	1394
308.15 K	1385
318.15 K	1376.1
328.15 K	1367.3

[1]
Conditions	surface tension liquid-gas [mN/m]
278.75 K	33.31
288.15 K	33.04
298.15 K	32.46
308.15 K	32
318.15 K	31.21
328.15 K	30.64

CCCO [propan-1-ol]
Conditions	surface tension liquid-gas [mN/m]
[1], 298 K	23.34

Conditions	mass density [kg/m3]
[1], 298 K, 101.3 kPa	799

CCCO [propan-1-ol] + CCCC[n+]1ccn(C)c1.O=S(=O)([N-]S(=O)(=O)C(F)(F)F)C(F)(F)F
[2], x2 = 0
Conditions	mass density [kg/m3]	surface tension liquid-gas [mN/m]
–	799	23.34
